Measurements from patent publication US20190338294A1, “ORTHOGONAL TRANSCRIPTIONAL SWITCHES DERIVED FROM TET REPRESSOR HOMOLOGS FOR SACCHAROMYCES CEREVISIAE” (The Johns Hopkins University, priority 2016, published 2019).
Read-outs that look alike come from different tables or passages of the source.

Assays:
ethTA(=NLS-ethR-VP16) = format: cell-based, Mycobacterium tuberculosis; details: 2-Benzyl acetate 0.01%, On w/o drug
lmrTAv2 (=NLS-lmrA-VP16) = test: Lmr-Offv2 switch candidate, GFP reporter (strain lmr/yxaG-lmrTAv2); format: cell-based, Bacillus subtilis; details: Quercetin 0.13 μM, Fisetin 0.19 μM, Coumesterol 0.22 μM, On w/o drug
phlTA (=phlF-VP16) [1] = test: DAPG-Off switch, GFP reporter, flow cytometry (strain DapG-TA); format: cell-based, Pseudomonas; details: for GFP fluorescence of DapG-TA: compared with BY4741 (background); for intensity of reporter GFP fluorescence, DAPG-Off switch: SC with 25-μM doxycycline, 25-μM D-camphor, 48-μM DAPG or 150-μM p-cumate
BY4741 [2] = test: Effects of DAPG on plating efficiency of BY4741; format: cell-based, Saccharomyces cerevisiae; details: 2 days
Experimental: FIG. 2 is a bar graph showing the effects of DAPG on plating efficiency of BY4741. Yeast strain BY4741 overnight culture in SC medium was diluted 25,000-fold, and 100 μl was spread on SC, and SC containing 24-μM or 48 μM of DAPG. The number of colonies formed was counted after 2 days. The values were means and standard deviations calculated from three experiments.

cymTA(=NLS-cymR-VP16) = biological target: T1, cymTA(=NLS-cymR-VP16) (Pseudomonas putida, UniProt O33453); test: Cumate-Off switch, GFP reporter (strain cymG-TA); format: cell-based; details: SC with 25-μM doxycycline, 25-μM D-camphor, 48-μM DAPG or 150-μM p-cumate
T1 construct: (cymTA in pSIB470); expressed in transfected cells; host or cells: Saccharomyces cerevisiae BY4741, integrated pSIB470 (strain cymG-TA)

tTA (=tetR-VP16) = biological target: T2, tTA (=tetR-VP16) (Escherichia coli, UniProt P04483); test: Tet-Off switch, GFP reporter, orthogonality test; format: cell-based; details: SC with 25-μM doxycycline, 25-μM D-camphor, 48-μM DAPG or 150-μM p-cumate
T2 construct: expressed in transfected cells; host or cells: Saccharomyces cerevisiae BY4742, integrated pSIB527 (strain TetOffG)

camTA (=camR-VP16-NLS) = test: Camphor-Off switch, GFP reporter, orthogonality test; format: cell-based, Pseudomonas putida; details: SC with 25-μM doxycycline, 25-μM D-camphor, 48-μM DAPG or 150-μM p-cumate
BY4741 [3] = details: cited from earlier work
phlTA (=phlF-VP16) [4] = test: DAPG-Off system with ADE2 reporter, spot growth on SC-Ade (strain phlA-TA); details: 24 μM DAPG, 2 days at 30° C.
Experimental: FIG. 3A-FIG. 3D is a series of photographs showing the evaluation of the DAPG-Off system using the ADE2 gene (CDS) as a reporter. Cells were cultured for 2 days at 30° C. in SC (FIG. 3A), SC-Ade (FIG. 3B), SC with 24 μM of DAPG (FIG. 3C), and SC-Ade with 24-DAPG (FIG. 3D). Cells were diluted 10-fold stepwise across each row.
A second reporter gene was used to further assess the performance of the DAPG-Off switch. Here, it was examined whether the ADE2 gene under the control of phlPr complements the adenine-auxotrophy of strain BY11204 in a DAPG-dependent manner (FIG. 3A-FIG. 3D).

NLS-PhlF = test: DAPG-On system with ADE2 reporter, spot growth on SC-Ade (strains AphOx-2μPhlF); details: 5 μM DAPG; hardly grew on DAPG-free SC-Ade
Experimental: Cells were cultured for 1 day at 30° C. in SC-Leu-His (FIG. 6A), SC-Leu-His-Ade (FIG. 6B), SC-Leu-His with 24-μM DAPG (FIG. 6C), and SC-Leu-His-Ade with 24-μM DAPG (FIG. 6D). The cells were diluted 10-fold stepwise across each row.
The performance of the DAPG-On system was assessed using ADE2 as a reporter in the ade2Δ BY11204 strain.
varTA (=varR-VP16) = test: Var-Off switch candidate, GFP reporter (strain varG-TA); format: cell-based, Streptomyces virginae; details: Virginiamycin S1 2 mM, On w/o drug
icaTA (=icaR-VP16) = test: IcaR-Off switch candidate, GFP reporter (strain icaG-TA); format: cell-based, Staphylococcus epidermidis; details: Gentamicin 10 mM, On w/o drug

T1 sequence (O33453 other isoform, or with tags, fused parts or gaps): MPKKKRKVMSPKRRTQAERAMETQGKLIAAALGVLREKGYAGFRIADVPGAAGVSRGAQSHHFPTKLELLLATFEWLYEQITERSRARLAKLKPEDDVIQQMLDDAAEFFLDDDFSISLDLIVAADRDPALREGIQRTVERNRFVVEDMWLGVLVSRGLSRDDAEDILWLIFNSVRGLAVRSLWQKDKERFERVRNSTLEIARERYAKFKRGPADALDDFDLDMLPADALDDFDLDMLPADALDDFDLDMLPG

CC(=O)OCc1ccccc1 [2-Benzyl acetate]
Expression of GFP with drug (ethTA(=NLS-ethR-VP16)): On
Expression of GFP with drug (ethTA(=NLS-ethR-VP16); listed as 2-benzyl acetate): solid ligand-independent GFP fluorescence

O=c1oc2cc(O)ccc2c2oc3cc(O)ccc3c12 [Coumesterol]
Expression of GFP with drug (lmrTAv2 (=NLS-lmrA-VP16)): On

CC(=O)c1c(O)cc(O)c(C(C)=O)c1O [DAPG, 2,4-diacetylphloroglucinol]
culture time over which GFP fluorescence reduced to background levels (phlTA (=phlF-VP16) [1]; 48 μM DAPG, strain DapG-TA): 14 h
GFP fluorescence of DapG-TA (phlTA (=phlF-VP16) [1]; 12-μM DAPG in SC): higher than that of the BY4741 control strain
GFP fluorescence of DapG-TA (phlTA (=phlF-VP16) [1]; 48-μM DAPG in SC): decreased to the same level as BY4741
intensity of reporter GFP fluorescence, DAPG-Off switch (phlTA (=phlF-VP16) [1]): decreased to the background level
number of colonies formed (BY4741 [2]; SC with 24-μM (5-μg/ml) DAPG vs SC without DAPG): little difference
number of colonies formed (BY4741 [2]; SC with 48-μM (10-μg/ml) DAPG vs SC without DAPG): little difference
intensity of reporter GFP fluorescence, Cumate-Off switch (cymTA(=NLS-cymR-VP16)): strong GFP signal
intensity of reporter GFP fluorescence, Tet-Off switch (tTA (=tetR-VP16)): lowered GFP fluorescence
intensity of reporter GFP fluorescence, Camphor-Off switch (camTA (=camR-VP16-NLS)): lowered GFP fluorescence
growth of BY4741 (BY4741 [3]; 10-μg/ml DAPG (Kwak et al., 2011)): did not inhibit growth
growth of cells of BY4741 background (BY4741 [3]; higher concentrations than 10-μg/ml DAPG (Troppens et al., 2013)): did show sensitivity
growth of phlA-TA strain on SC-Ade medium (phlTA (=phlF-VP16) [4]): did not grow
growth of strains AphOx-2μPhlF on SC-Ade medium (NLS-PhlF): vigorous growth

O=c1c(O)c(-c2ccc(O)c(O)c2)oc2cc(O)ccc12 [Fisetin]
Expression of GFP with drug (lmrTAv2 (=NLS-lmrA-VP16)): On

O=c1c(O)c(-c2ccc(O)c(O)c2)oc2cc(O)cc(O)c12 [Quercetin]
Expression of GFP with drug (lmrTAv2 (=NLS-lmrA-VP16)): On
Expression of GFP with drug (lmrTAv2 (=NLS-lmrA-VP16); listed as quercetin): not ligand (quercetin)-responsive

CC[C@H]1NC(=O)[C@@H](NC(=O)c2ncccc2O)[C@@H](C)OC(=O)[C@H](c2ccccc2)NC(=O)[C@@H]2CC(=O)CCN2C(=O)[C@H](Cc2ccccc2)N(C)C(=O)[C@@H]2CCCN2C1=O [Virginiamycin S1]
Expression of GFP with drug (varTA (=varR-VP16)): On
Expression of GFP with drug (varTA (=varR-VP16); listed as virginiamycin S): strong GFP expression

D-camphor
intensity of reporter GFP fluorescence, DAPG-Off switch (phlTA (=phlF-VP16) [1]): strong GFP signal
intensity of reporter GFP fluorescence, Cumate-Off switch (cymTA(=NLS-cymR-VP16)): strong GFP signal
intensity of reporter GFP fluorescence, Tet-Off switch (tTA (=tetR-VP16)): strong GFP signal
intensity of reporter GFP fluorescence, Camphor-Off switch (camTA (=camR-VP16-NLS)): decreased to the background level

Gentamicin
Expression of GFP with drug (icaTA (=icaR-VP16)): On
Expression of GFP with drug (icaTA (=icaR-VP16); listed as gentamicin): solid ligand-independent GFP fluorescence
